From patent publication US11566057B2, “Long-acting co-agonists of the glucagon and GLP-1 receptors” (Merck Sharp & Dohme Corp., priority 2017, dated 2023)
Numbered stars: 1 amine (or outer) side, 2 acyl side, 3 side chain; on linkers, the order of the positions; unused ones are H or OH. Square brackets hold non-standard residues; d marks the D form. Side chains are listed from the residue outwards. Peptide text beside a SMILES is read from it. * marks the point of attachment. C20 diacid = O=C(O)CCCCCCCCCCCCCCCCCCC(=O)*; Phe(4-CH2NH2) = NCc1ccc(C[C@H](N)C(=O)O)cc1; C18 diacid = O=C(O)CCCCCCCCCCCCCCCCC(=O)*; γGlu = O=C(O)[C@H](CCC(=O)[*:2])N[*:1]; Met(O2) = CS(=O)(=O)CC[C@H](N)C(=O)O; αMeD = C[C@](N)(CC(=O)O)C(=O)O; AEEA = NCCOCCOCC(=O)O; Aib = CC(C)(N)C(=O)O

Each compound was assayed against T1, human GCGR (Homo sapiens, UniProt P47871) (assay: cAMP activity assay at the Glucagon receptor (GCGR)). Conditions: ratio of GCGR EC50 to GLP1R EC50.
T1 construct: expressed in transfected cells; growth medium holds Blasticidin and Hygromycin
T1 sequence (P47871 26-477): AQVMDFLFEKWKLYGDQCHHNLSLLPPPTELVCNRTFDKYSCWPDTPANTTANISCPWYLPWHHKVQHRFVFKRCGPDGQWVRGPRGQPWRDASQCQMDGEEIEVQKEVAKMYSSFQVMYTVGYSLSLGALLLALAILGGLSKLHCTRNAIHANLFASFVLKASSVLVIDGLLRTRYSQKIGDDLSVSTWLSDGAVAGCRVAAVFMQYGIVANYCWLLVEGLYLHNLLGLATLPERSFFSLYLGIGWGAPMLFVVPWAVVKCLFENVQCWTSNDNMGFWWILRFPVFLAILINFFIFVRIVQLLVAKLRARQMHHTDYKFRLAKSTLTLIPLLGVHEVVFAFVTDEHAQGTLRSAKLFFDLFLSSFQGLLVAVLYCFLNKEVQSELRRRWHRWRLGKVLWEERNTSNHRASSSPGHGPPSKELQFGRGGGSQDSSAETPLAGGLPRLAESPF
Type: cell-based
Method: Activity of the peptides at the Glucagon receptor (GCGR) and GLP-1 receptor (GLP1R) was measured in a cAMP activity assay.
GCG/GLP-1 receptor co-agonist peptides were dissolved in 100% DMSO (dimethyl sulfoxide) and serially diluted to generate 10 point titrations. The peptide solutions were then transferred into 384-well assay plates (150 nL/well). Assay ready frozen cells expressing human GLP1R or human GCGR were suspended in growth media consisting of DMEM medium (GIBCO®), 10% FBS (GIBCO®), 1×NEAA(GIBCO®), 1×P/S (GIBCO®), 10 ug/mL Blasticidin (GIBCO®) and 200 μg/mL Hygromycin (GIBCO®). […] The cell suspensions (15 μL) were then added to the assay plates containing the peptide solutions (30,000 cells/well for human GCGR; 10,000 cells/well for human GLP1R). The cells were incubated for 1 hour at room temperature in the dark. Production of cAMP was determined using HitHunter™ cAMPXS kits (DiscoverX) following manufacturer protocol. The plates were incubated for overnight at room temperature in the dark. Luminescence was measured using an EnVision Multilabel plate reader (Perkin Elmer). Native GLP-1 and Glucagon (Bachem) are used as control peptides. EC50 values were calculated using uses a 4 parameter logistic fit based on the Levenberg-Marquardt algorithm.

| SMILES | hGCGR/hGLP1R (hTone) |
| --- | --- |
| CC(C)C[C@H](NC(=O)[C@H](Cc1ccc(O)cc1)NC(=O)[C@H](CCCCN)NC(=O)[C@H](CO)NC(=O)[C@H](Cc1ccc(O)cc1)NC(=O)[C@H](CC(=O)O)NC(=O)[C@H](CO)NC(=O)[C@@H](NC(=O)[C@H](Cc1ccccc1)NC(=O)[C@@H](NC(=O)CNC(=O)[C@H](CCC(N)=O)NC(=O)C(C)(C)NC(=O)[C@@H](N)Cc1c[nH]cn1)[C@@H](C)O)[C@@H](C)O)C(=O)N[C@@H](CC(=O)O)C(=O)N[C@@H](C)C(=O)N[C@@H](CCCNC(=N)N)C(=O)N[C@@H](C)C(=O)N[C@@H](C)C(=O)N[C@@H](CCC(N)=O)C(=O)N[C@@H](Cc1ccc(CNC(=O)COCCOCCNC(=O)COCCOCCNC(=O)CC[C@H](NC(=O)CCCCCCCCCCCCCCCCC(=O)O)C(=O)O)cc1)C(=O)N[C@@H](Cc1ccccc1)C(=O)N[C@H](C(=O)N[C@@H](CCC(N)=O)C(=O)N[C@@H](Cc1c[nH]c2ccccc12)C(=O)N[C@@H](CC(C)C)C(=O)N[C@@H](CC(C)C)C(=O)N[C@@H](CC(=O)O)C(=O)N[C@H](C(N)=O)[C@@H](C)O)C(C)C [TP443] (H-H[Aib]QGTFTSDYSKYLDARAAQ[Phe(4-CH2NH2)]([AEEA-AEEA-γGlu-C18 diacid])FVQWLLDT-NH2) | 1.8 |
| CC(C)C[C@H](NC(=O)[C@H](Cc1ccc(O)cc1)NC(=O)[C@H](CCCCN)NC(=O)[C@H](CO)NC(=O)[C@H](Cc1ccc(O)cc1)NC(=O)[C@H](CC(=O)O)NC(=O)[C@H](CO)NC(=O)[C@@H](NC(=O)[C@H](Cc1ccccc1)NC(=O)[C@@H](NC(=O)CNC(=O)[C@H](CCC(N)=O)NC(=O)C(C)(C)NC(=O)[C@@H](N)Cc1c[nH]cn1)[C@@H](C)O)[C@@H](C)O)C(=O)N[C@@H](CC(=O)O)C(=O)N[C@@H](C)C(=O)N[C@@H](CCCNC(=N)N)C(=O)N[C@@H](C)C(=O)N[C@@H](C)C(=O)N[C@@H](CCCCNC(=O)COCCOCCNC(=O)COCCOCCNC(=O)CC[C@H](NC(=O)CCCCCCCCCCCCCCCCCCC(=O)O)C(=O)O)C(=O)N[C@@H](CC(=O)O)C(=O)N[C@@H](Cc1ccccc1)C(=O)N[C@H](C(=O)N[C@@H](CCC(N)=O)C(=O)N[C@@H](Cc1c[nH]c2ccccc12)C(=O)N[C@@H](CC(C)C)C(=O)N[C@@H](CCS(C)(=O)=O)C(=O)N[C@@](C)(CC(=O)O)C(=O)N[C@H](C(N)=O)[C@@H](C)O)C(C)C [TP565] (H-H[Aib]QGTFTSDYSKYLDARAAK([AEEA-AEEA-γGlu-C20 diacid])DFVQWL[Met(O2)][αMeD]T-NH2; N-terminus assumed) | 2.4 |
| CC(C)C[C@H](NC(=O)[C@H](Cc1c[nH]c2ccccc12)NC(=O)[C@H](CCCCNC(=O)COCCOCCNC(=O)COCCOCCNC(=O)CC[C@H](NC(=O)CCCCCCCCCCCCCCCCC(=O)O)C(=O)O)NC(=O)[C@@H](NC(=O)[C@H](Cc1ccccc1)NC(=O)[C@H](CC(=O)O)NC(=O)[C@H](CCC(N)=O)NC(=O)[C@H](C)NC(=O)[C@H](C)NC(=O)[C@H](CCCNC(=N)N)NC(=O)C(C)(C)NC(=O)[C@H](CC(=O)O)NC(=O)[C@H](CC(C)C)NC(=O)[C@H](Cc1ccc(O)cc1)NC(=O)[C@H](CCCCN)NC(=O)[C@H](CO)NC(=O)[C@H](Cc1ccc(O)cc1)NC(=O)[C@H](CC(=O)O)NC(=O)[C@H](CO)NC(=O)[C@@H](NC(=O)[C@H](Cc1ccccc1)NC(=O)[C@@H](NC(=O)CNC(=O)[C@H](CCC(N)=O)NC(=O)C(C)(C)NC(=O)[C@@H](N)Cc1c[nH]cn1)[C@@H](C)O)[C@@H](C)O)C(C)C)C(=O)N[C@@H](CCS(C)(=O)=O)C(=O)N[C@@H](CC(=O)O)C(=O)N[C@H](C(N)=O)[C@@H](C)O [TP575] (H-H[Aib]QGTFTSDYSKYLD[Aib]RAAQDFVK([AEEA-AEEA-γGlu-C18 diacid])WL[Met(O2)]DT-NH2; N-terminus assumed) | 0.7 |
| CC(C)C[C@H](NC(=O)[C@H](CC(C)C)NC(=O)[C@H](Cc1c[nH]c2ccccc12)NC(=O)[C@H](CCC(N)=O)NC(=O)[C@@H](NC(=O)[C@H](Cc1ccccc1)NC(=O)[C@H](CC(=O)O)NC(=O)[C@H](CCC(N)=O)NC(=O)[C@H](C)NC(=O)[C@H](C)NC(=O)[C@H](CCCNC(=N)N)NC(=O)C(C)(C)NC(=O)[C@H](CC(=O)O)NC(=O)[C@H](CC(C)C)NC(=O)[C@H](Cc1ccc(O)cc1)NC(=O)[C@H](CCCCN)NC(=O)[C@H](CO)NC(=O)[C@H](Cc1ccc(CNC(=O)COCCOCCNC(=O)COCCOCCNC(=O)CC[C@H](NC(=O)CCCCCCCCCCCCCCCCCCC(=O)O)C(=O)O)cc1)NC(=O)[C@H](CC(=O)O)NC(=O)[C@H](CO)NC(=O)[C@@H](NC(=O)[C@H](Cc1ccccc1)NC(=O)[C@@H](NC(=O)CNC(=O)[C@H](CCC(N)=O)NC(=O)C(C)(C)NC(=O)[C@@H](N)Cc1c[nH]cn1)[C@@H](C)O)[C@@H](C)O)C(C)C)C(=O)N[C@@H](C)C(=O)N[C@H](C(=O)N[C@@H](CCCCNC(=O)CC[C@H](N)C(=O)O)C(N)=O)[C@@H](C)O [TP581] (H-H[Aib]QGTFTSD[Phe(4-CH2NH2)]([AEEA-AEEA-γGlu-C20 diacid])SKYLD[Aib]RAAQDFVQWLLATK(γGlu)-NH2; N-terminus assumed) | 2.9 |

Further lines, results first:

| hGCGR/hGLP1R (hTone) | SMILES |
| --- | --- |
| 8.6 | CC(C)C[C@H](NC(=O)[C@H](Cc1ccc(O)cc1)NC(=O)[C@H](CCCCN)NC(=O)[C@H](CO)NC(=O)[C@H](Cc1ccc(O)cc1)NC(=O)[C@H](CC(=O)O)NC(=O)[C@H](CO)NC(=O)[C@@H](NC(=O)[C@H](Cc1ccccc1)NC(=O)[C@@H](NC(=O)CNC(=O)[C@H](CCC(N)=O)NC(=O)C(C)(C)NC(=O)[C@@H](N)Cc1c[nH]cn1)[C@@H](C)O)[C@@H](C)O)C(=O)N[C@@H](CC(=O)O)C(=O)N[C@@H](C)C(=O)N[C@@H](CCCNC(=N)N)C(=O)N[C@@H](C)C(=O)N[C@@H](C)C(=O)N[C@@H](CCC(N)=O)C(=O)N[C@@H](CC(=O)O)C(=O)N[C@@H](Cc1ccccc1)C(=O)N[C@H](C(=O)N[C@@H](Cc1ccc(CNC(=O)COCCOCCNC(=O)COCCOCCNC(=O)CC[C@H](NC(=O)CCCCCCCCCCCCCCCCC(=O)O)C(=O)O)cc1)C(=O)N[C@@H](Cc1c[nH]c2ccccc12)C(=O)N[C@@H](CC(C)C)C(=O)N[C@@H](CC(C)C)C(=O)N[C@@H](CC(=O)O)C(=O)N[C@H](C(N)=O)[C@@H](C)O)C(C)C [TP583] (H-H[Aib]QGTFTSDYSKYLDARAAQDFV[Phe(4-CH2NH2)]([AEEA-AEEA-γGlu-C18 diacid])WLLDT-NH2; N-terminus assumed) |
| 2.0 | CC(C)C[C@H](NC(=O)[C@H](Cc1ccc(O)cc1)NC(=O)[C@H](CCCCN)NC(=O)[C@H](CO)NC(=O)[C@H](Cc1ccc(O)cc1)NC(=O)[C@H](CC(=O)O)NC(=O)[C@H](CO)NC(=O)[C@@H](NC(=O)[C@H](Cc1ccccc1)NC(=O)[C@@H](NC(=O)CNC(=O)[C@H](CCC(N)=O)NC(=O)C(C)(C)NC(=O)[C@@H](N)Cc1c[nH]cn1)[C@@H](C)O)[C@@H](C)O)C(=O)N[C@@H](CC(=O)O)C(=O)N[C@@H](C)C(=O)N[C@@H](CCCNC(=N)N)C(=O)N[C@@H](C)C(=O)N[C@@H](C)C(=O)N[C@@H](CCC(N)=O)C(=O)N[C@@H](Cc1ccc(CNC(=O)COCCOCCNC(=O)COCCOCCNC(=O)CC[C@H](NC(=O)CCCCCCCCCCCCCCCCCCC(=O)O)C(=O)O)cc1)C(=O)N[C@@H](Cc1ccccc1)C(=O)N[C@H](C(=O)N[C@@H](CCC(N)=O)C(=O)N[C@@H](Cc1c[nH]c2ccccc12)C(=O)N[C@@H](CC(C)C)C(=O)N[C@@H](CC(C)C)C(=O)N[C@@H](CC(=O)O)C(=O)N[C@H](C(N)=O)[C@@H](C)O)C(C)C [TP585] (H-H[Aib]QGTFTSDYSKYLDARAAQ[Phe(4-CH2NH2)]([AEEA-AEEA-γGlu-C20 diacid])FVQWLLDT-NH2; N-terminus assumed) |
| 1.2 | CC(C)C[C@H](NC(=O)[C@H](CC(C)C)NC(=O)[C@H](CCCCN)NC(=O)[C@H](CO)NC(=O)[C@H](Cc1ccc(O)cc1)NC(=O)[C@H](CC(=O)O)NC(=O)[C@H](CO)NC(=O)[C@@H](NC(=O)[C@H](Cc1ccccc1)NC(=O)[C@@H](NC(=O)CNC(=O)[C@H](CCC(N)=O)NC(=O)C(C)(C)NC(=O)[C@@H](N)Cc1c[nH]cn1)[C@@H](C)O)[C@@H](C)O)C(=O)N[C@@H](CC(=O)O)C(=O)N[C@@H](C)C(=O)N[C@@H](CCCNC(=N)N)C(=O)N[C@@H](C)C(=O)N[C@@H](C)C(=O)N[C@@H](CCCCNC(=O)COCCOCCNC(=O)COCCOCCNC(=O)CC[C@H](NC(=O)CCCCCCCCCCCCCCCCC(=O)O)C(=O)O)C(=O)N[C@@H](CC(=O)O)C(=O)N[C@@H](Cc1ccccc1)C(=O)N[C@H](C(=O)N[C@@H](CCC(N)=O)C(=O)N[C@@H](Cc1c[nH]c2ccccc12)C(=O)N[C@@H](CC(C)C)C(=O)N[C@@H](CCS(C)(=O)=O)C(=O)N[C@@H](CC(=O)O)C(=O)N[C@H](C(N)=O)[C@@H](C)O)C(C)C [TP597] (H-H[Aib]QGTFTSDYSKLLDARAAK([AEEA-AEEA-γGlu-C18 diacid])DFVQWL[Met(O2)]DT-NH2; N-terminus assumed) |
